Assay results taken from patent US5834415A, “Naphthalene boronic acids” (Novo Nordisk A/S, priority 1994, dated 1998).
pKi: −log10 of the molar value. Like-named read-outs stand apart in the source and are kept apart here.

Tests used:
[1] = test system: subtilisin; settings: Keller et al, Biochem. Biophys. Res. Com. 176, 1991, pp. 401-405; cited from earlier work
[2] = molecular target: T1, Alcalase (Bacillus licheniformis, UniProt P00780); test: Determination of Ki, inhibition of Alcalase; format: biochemical
T1 construct: purchased Novo Nordisk A/S
T1 sequence (P00780 106-379): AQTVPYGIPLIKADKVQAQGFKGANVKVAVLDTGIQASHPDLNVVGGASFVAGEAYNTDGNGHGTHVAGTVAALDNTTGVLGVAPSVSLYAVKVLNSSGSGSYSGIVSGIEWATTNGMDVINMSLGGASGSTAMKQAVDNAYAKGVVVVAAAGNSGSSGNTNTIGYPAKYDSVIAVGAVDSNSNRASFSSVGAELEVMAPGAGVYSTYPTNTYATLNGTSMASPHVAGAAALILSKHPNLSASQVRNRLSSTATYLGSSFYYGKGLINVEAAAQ
Description: (§1) c) Determination of Ki : The inhibition constant Ki may be determined by using standard methods, for reference see Keller et al, Biochem. Biophys. Res. Com. 176, 1991, pp.401-405; J. Bieth in Bayer-Symposium "Proteinase Inhibitors", pp. 463-469, Springer-Verlag, 1974 and Lone Kierstein Hansen in "Determination of Specific Activities of Selected Deterrent Proteases using Protease Activity, Molecular Weights, Kinetic Parameters and Inhibition Kinetics", PhD-report, Novo Nordisk A/S and University of Copenhagen, 1991.
(§2) The inhibition constant Ki for the inhibition of Alcalase and Savinase was determined using standard methods under the following conditions:
(§3) Substrate: Succinyl-Alanine-Alanine-Proline-Phenylalanine-paranitro-anilide=SAAPFpNA (Sigma S-7388).
(§4) Buffer: 0.1M Tris-HCl pH 8.6; 25° C.
(§5) Enzyme concentration in assay:
(§6) The initial rate of substrate hydrolysis was determined at nine substrate concentrations in the range of 0.01 to 2 mM using a Cobas Fara automated spectrophotometer. The kinetic parameters Vmax and Km were determined using ENZFITTER (a non-linear regression data analysis program). kcat was calculated from the equation Vmax =kcat ×[Eo ]. The concentration of active enzyme [Eo ] was determined by active site titration using tight-binding protein proteinase inhibitors. The inhibition constant Ki was calculated from plots of Km /kcat as a function of the concentration of inhibitor. The inhibitors were assumed to be 100% pure and the molar concentrations were determined using weighing numbers and molecular weights.

[3] = molecular target: T2, Savinase (Lederbergia lenta, UniProt P29600); test: Determination of Ki, inhibition of Savinase; format: biochemical, Bacillus
T2 construct: purchased Novo Nordisk A/S
T2 sequence (P29600 1-269): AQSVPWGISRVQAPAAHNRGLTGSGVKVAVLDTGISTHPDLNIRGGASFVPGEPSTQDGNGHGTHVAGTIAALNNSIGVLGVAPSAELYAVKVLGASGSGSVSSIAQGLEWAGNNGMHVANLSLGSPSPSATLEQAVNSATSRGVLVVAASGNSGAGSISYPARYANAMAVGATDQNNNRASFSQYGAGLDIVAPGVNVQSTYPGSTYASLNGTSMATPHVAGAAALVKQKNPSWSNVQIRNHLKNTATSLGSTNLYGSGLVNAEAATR
Description: as §1, §2, §3, §4, §5, §6

[4] = test system: proteolytic enzymes; settings: prior art; WO 92/19707 for acetamidobenzene boronic acid; cited from earlier work
[5] = substrate SAAPFpNA, 0.1M Tris-HCl pH 8.6, 25° C., Alcalase 1×10^-10 - 3×10^-10 M, read-out: Ki Alcalase
[6] = substrate SAAPFpNA, 0.1M Tris-HCl pH 8.6, 25° C., Savinase 1×10^-10 - 3×10^-10 M, read-out: Ki Savinase

Compound | pKi [2, 5] | pKi [3, 6] | other results
OB(O)c1cc(Cl)cc(Cl)c1 [3,5-dichlorophenylboronic acid] |  |  | capacity as subtilisin inhibitor [1]: particularly effective
OB(O)c1ccc2cc(O)ccc2c1 [6-hydroxynaphthalene-2-boronic acid] | 3.30 | 3.22 | 
OB(O)O [Boric acid] |  |  | pKi [2]: 1.52; pKi [3]: 1.70; inhibition of proteolytic enzymes [4]: reversibly inhibit proteolytic enzymes
OB(O)c1cccc2ccccc12 [Naphthalene-1-boronic acid, Naphthalene-1-Boronic Acid] | 3.30 | 3.05 | 
OB(O)c1ccc2ccccc2c1 [Naphthalene-2-boronic acid, Naphthalene-2-Boronic Acid] | 3.40 | 3.52 | 
CB(O)O [methylboronic acid] |  |  | capacity as subtilisin inhibitor [1]: poorest inhibitor
acetamidobenzene boronic acid |  |  | inhibition of proteolytic enzymes [4]: superior inhibitor of proteolytic enzymes
